From US20250135071A1, “USE OF POLYPEPTIDE IN PROMOTION OF CARTILAGE REGENERATION OR REPAIR” (HANGZHOU HUIBO SCIENCE AND TECHNOLOGY CO., LTD, priority 2021, published 2025) come the findings set out here.

Test [1] deals with rabbit temporomandibular joint condylar osteochondral defect (3 mm*3 mm). The test can be described thus: Histological evaluation (H&E, histomorphometry, MODS score) of repaired osteochondral defect. The class given is in vivo, New Zealand white rabbits. The conditions noted are these: group 3. Here is the method: In this example, 3 groups of rabbits provided in Example 2 were used, and at 1, 2 and 4 weeks after operation, 6 animals in each group were randomly selected for euthanasia. The right temporomandibular joint and surrounding tissues thereof were taken out, and the gross specimens were analyzed for tissue morphology and statistically analyzed.
(§1) Histological examination steps were as follows: in an environment of 4° C., the specimens used for histological analysis were fixed in 10% neutral formalin (Sig-ma-Aldrich, USA) for 24 hours, and decalcified with a 10% ethylenediaminetetraacetic acid (EDTA) buffer solution (Sigma-Aldrich, USA) for 28 days. The sample was embedded in paraffin wax (Sigma-Aldrich, USA), cut into 4 μm thick sagittal sections, and subjected to staining with hemotoxylin and cosin, Masson trichrome and Alcian Blue (Sigma Aldrich, USA). The sections were detected immunohistochemically for the contents of the type II collagen and Aggrecan. All the sections were observed and photographed by utilizing an optical microscope (CX51; Olympus) and a digital charge coupled device camera (TrueChrome Metrics; Tucsen Photonics). These sections were scored blindly by 3 experienced pathologists with an improved O'Driscoll scoring system (MODS).
The steps of histological morphology analysis were as follows: in all the sample sections, the original defect region was a 3*3 mm square. The top of the square was flush with the cartilage surfaces on both sides. The percentages of areas of the new subchondral bone, the cartilage, the collagen fiber and the glycosaminoglycan (GAG) in the total area of the defect region was detected with image analysis software (image pro plus 6.0). Their respective contents were expressed as integrated optical density (IOD) of the type II collagen and Aggrecan measured by Image pro plus 6.0.
At 4 weeks after operation, the tissues were retrieved for histological treatment and sectioning. According to the implants in the defect region, they were divided into a group 1 as the control group (A in FIG. 3, A1-A2), a group 2 as the Gel-MA group (B in FIG. 3, B1-B2) and a group 3 as the Hst1/Gel-MA group (C in FIG. 3, C1-C2). The dotted square area in FIG. 3 was the original defect region (3 mm*3 mm). A-C scale=500 μm. […]
The quantitative analysis of areas of new cartilage and subchondral bones and the MODS score results of repairing osteochondral defects at 1, 2 and 4 weeks after operation were shown in FIG. 4. In FIG. 4, A was the quantitative analysis of the area of the new cartilage, B was the quantitative analysis of the area of the subchondral bone, and C, D and E were the MODS score results of repairing osteochondral defects at 1, 2 and 4 weeks after operation, respectively. […]

Test [2] shares this test system. The test can be described thus: Macroscopic (ICRS) evaluation of repair of rabbit condylar osteochondral defect. Type of test: in vivo, New Zealand white rabbits. The note with it: overall conclusion, 1 to 4 weeks. An excerpt:
54 adult male New Zealand white rabbits (Zhejiang Chinese Medical University, IACUC-20180625-04) were randomized into 3 groups, with 18 rabbits in each group. The 54 rabbits were operated at right condyle, while the left condyle remained intact.
They were divided into 3 groups, of which group 1 was a control group without any treatment in the defect region; group 2 was a Gel-MA group implanted with Gel-MA hydrogel in the defect region; and group 3 was a Hst1/Gel-MA group implanted with HST1 functionalized Gel-MA in the defect region (provided in Example 1). […]
At 1, 2 and 4 weeks after operation, 6 animals in each group were randomly selected for euthanasia. The right temporomandibular joint and surrounding tissues thereof were taken out, and the gross specimens were evaluated by macroscopic scoring, and statistically analyzed.
The macroscopic scoring evaluation of the gross specimens adopted a macroscopic scoring system of the International Cartilage Repair Society (ICRS), and the gross appearance of the defect site was photographed and subjected to blind evaluation by 3 independent graders. The scoring system evaluated the cartilage repair in the defect region from four aspects: the degree of repair, the integration of a boundary area, a macroscopic appearance and the overall repair evaluation. […]

The test system of test [3] is defect region of a critical size in rabbit condyle. The test can be described thus: Effect of Hst1 dose in Gel-MA on cartilage repair (H&E histology). Type of test: in vivo. The conditions noted are these: 2 weeks. An excerpt: In order to determine the optimal concentration of Hst1 for promoting osteochondral repair, Gel-M and 3 different doses of Hst1 at (A, A1) 50, (B, B1) 500, and (C, C1) 1,000 (μg)/sample were implanted in the defect region of a critical size in rabbit condyle, and the tissues were taken out at 2 weeks after operation, subjected to histological treatment and sectioned to explore the cartilage repair effects of the 3 different concentrations of Hst1.
The 3 different concentrations of Hst1 were set as follows: group A: 50 μg of Hst1+21.1 μl of a Gel-MA prepolymer solution; group B: 500 μg of Hst1+21.1 μl of a Gel-MA prepolymer solution; and group C: 1,000 μg of Hst1+21.1 μl of a Gel-MA prepolymer solution (the model volume of condylar defect was 21.1 μl/sample).
The optical photomicrographs of H&E stained tissue sections of rabbit condyle for comparison were shown in FIG. 8, wherein the dotted square area was the original defect region (3 mm*3 mm), the A-C scale was 500 μm; and the A1-C1 scale=50 μm. […] Therefore, 500 μg of Hst1/sample (500 μg of Hst1+21.1 μl of Gel-MA) was selected as the preferred concentration.

The next test has as its system type II collagen. The test can be described thus: Immunohistochemistry of type II collagen in repaired tissue. The class given is in vivo, New Zealand white rabbits. As for the experimental part: as §1, with “All the sections were observed and photographed by utilizing an optical microscope (CX51; Olympus) and a digital charge coupled device camera (TrueChrome Metrics; Tucsen Photonics).” left out
(§2) The steps of histological morphology analysis were as follows: in all the sample sections, the original defect region was a 3*3 mm square. […] The percentages of areas of the new subchondral bone, the cartilage, the collagen fiber and the glycosaminoglycan (GAG) in the total area of the defect region was detected with image analysis software (image pro plus 6.0). Their respective contents were expressed as integrated optical density (IOD) of the type II collagen and Aggrecan measured by Image pro plus 6.0. […]

The subject of a further test is Aggrecan. The test can be described thus: Immunohistochemistry of Aggrecan in repaired tissue. The class given is in vivo, New Zealand white rabbits. As for the experimental part:
as §1, with “All the sections were observed and photographed by utilizing an optical microscope (CX51; Olympus) and a digital charge coupled device camera (TrueChrome Metrics; Tucsen Photonics).” left out
as §2

The subject of a further test is glycosaminoglycan (GAG). The test can be described thus: Alcian Blue staining, glycosaminoglycan (GAG) area in defect region. Type of test: in vivo, New Zealand white rabbits. The note with it: 2 and 4 weeks; group 3 versus groups 2 and 1; P<0.05. Here is the method:
as §1, with “All the sections were observed and photographed by utilizing an optical microscope (CX51; Olympus) and a digital charge coupled device camera (TrueChrome Metrics; Tucsen Photonics).” left out
as §2

In the next test the test system is collagen fibers. As to the kind of experiment: Masson trichrome staining, collagen fiber area in defect region. Type of test: in vivo, New Zealand white rabbits. The note with it: 2 and 4 weeks; group 3 versus groups 2 and 1; P<0.05. Here is the method: as §1, with “All the sections were observed and photographed by utilizing an optical microscope (CX51; Olympus) and a digital charge coupled device camera (TrueChrome Metrics; Tucsen Photonics).” left out
as §2

Setting [4] is: 4 weeks after operation, group 3.
Setting [5] is: 4 weeks, group 3, quantitative analysis (IOD).

Consider “Histatin-1 polypeptide (DSHEKRHHGYRRKFHEKHHSHREFPFYGDYGSNYLYDN; linear Hst1)”, for which the “histological observation of defect region” value in test [1] (1 week after operation) is “a new tissue was observed in the pores of the undegraded scaffold”; in test [1] (2 weeks after operation) it was “new cartilage and bone tissues gradually grew, infiltrated and replaced the scaffold”; in test [1] (4 weeks after operation), “the new cartilage proliferated and migrated to the center site of the defect”. Besides, in test [1] (4 weeks after operation), the “new blood vessels at junction between subchondral bone and functionalized hydrogel” value is “formation of new blood vessels could be detected”. Also, the “effect on promoting the repair of cartilage injury (macroscopic)” value in test [2] is recorded as “very significant effect on promoting the repair of cartilage injury”. The “histological repair of defect region” value is “no new tissue was generated, and only a small amount of cell infiltration was detected” in test [3] (group A: 50 μg of Hst1+21.1 μl Gel-MA prepolymer solution); “several new cartilage islands could be obviously observed” in test [3] (group B: 500 μg of Hst1+21.1 μl Gel-MA prepolymer solution); “a large number of new subchondral bones were generated, but almost no new cartilage tissue was detected” in test [3] (group C: 1,000 μg of Hst1+21.1 μl Gel-MA prepolymer solution). The “expression of the type II collagen in the new cartilage tissue” value in the test with type II collagen (setting [4]) was “close to those in the normal cartilage tissue”. In addition, the “expression of the type II collagen compared with the groups 2 and 1” value in the test on type II collagen (setting [5]) is “more significant”. Besides, in the test on Aggrecan (setting [4]), the “expression of Aggrecan in the new cartilage tissue” value is “close to those in the normal cartilage tissue”. Also, in the test with Aggrecan (setting [5]), the “expression of Aggrecan compared with the groups 2 and 1” value is on record as “more significant”. For the same substance, the “area percentages of glycosaminoglycan (GAG) in the new cartilage and the subchondral bone in the total area of the defect region” value in the test on glycosaminoglycan (GAG) is “significantly higher than those in the groups 2 and 1”. In addition, the “area percentages of the collagen fibers in the new cartilage and the subchondral bone in the total area of the defect region” value in the test with collagen fibers was “significantly higher than those in the groups 2 and 1”.
